Results taken from US8080565B2, “Substituted 4-amino-benzylpiperidine compounds” (Theravance, Inc., priority 2003, dated 2011).
pKi: −log10 of the molar value.

Experiments:
[1] = tested on: oxotremorine-induced salivation; assay: In vivo rat salivation assay; settings: for ID50 bladder/salivation selectivity ratio: comparison of ID50 values of rat bladder assay and rat salivation assay
Description: Female Sprague-Dawley rats weighing 200 to 300 g were anesthetized with urethane (1.5 g/kg, s.c., Sigma, St. Louis, Mo.), with a supplement of 0.25 g/kg, s.c. urethane as needed. Urethane was administered at a concentration of 0.25 g/mL.
Rats were placed on a heated blanket on their dorsal side in an inclined position (20° angle) position (head down). A swab was placed in the rat's mouth. The test compound or vehicle was administered intravenously via the tail vein. After 5 min., oxotremorine (1.0 mg/kg) was administered subcutaneously. The swab was discarded and replaced by a pre-weighed swab. Saliva was then collected for 10 min. and then the swab was removed and re-weighed to determine the output of saliva. Dose-response curves were fitted with a four parameter logistic equation to obtain estimates of ID50 (dose required to produce 50% of the maximal response).
By comparing the ID50 values determined in the rat bladder assay and rat salivation assay, the in vivo bladder/salivation selectivity ratio was calculated for the compounds tested.

[2] = target: T1, hM2 muscarinic receptor subtype (Homo sapiens, UniProt P08172); assay: Radioligand binding assay ([3H]NMS displacement), hM2; settings: [3H]NMS at 1 nM; membranes of CHO cells expressing hM2
T1 construct: expressed in transfected cells; membrane preparation
T1 sequence (P08172 1-466): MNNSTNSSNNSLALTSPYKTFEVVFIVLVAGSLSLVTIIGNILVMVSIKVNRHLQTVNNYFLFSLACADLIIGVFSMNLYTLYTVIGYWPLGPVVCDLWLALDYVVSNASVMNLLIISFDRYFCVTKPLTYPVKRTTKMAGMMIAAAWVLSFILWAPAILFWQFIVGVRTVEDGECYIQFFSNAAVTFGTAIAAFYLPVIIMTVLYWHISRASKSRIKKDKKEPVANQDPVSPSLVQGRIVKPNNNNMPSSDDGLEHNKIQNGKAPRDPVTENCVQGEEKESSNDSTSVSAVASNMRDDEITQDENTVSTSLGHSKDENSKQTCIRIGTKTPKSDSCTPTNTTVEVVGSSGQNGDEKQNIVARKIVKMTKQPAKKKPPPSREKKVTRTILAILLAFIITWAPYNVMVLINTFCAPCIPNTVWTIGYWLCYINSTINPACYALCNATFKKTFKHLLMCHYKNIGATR
Description: (§1) A. Membrane Preparation from Cells Expressing hM1, hM2, hM3 and hM4 Muscarnic Receptor Subtypes
(§2) CHO (Chinese hamster ovary) cell lines stably expressing cloned human hM1, hM2, hM3 and hM4 muscarinic receptor subtypes, respectively, were grown to near confluency in medium consisting of HAM's F-12 supplemented with 10% FBS (Fetal Bovine Serum) and 250 μg/mL Geneticin. The cells were grown in a 5% CO2, 37° C. incubator and lifted with dPBS+2 mM EDTA. Cells were collected by 5 minute centrifugation at 650×g, and cell pellets were either stored frozen at −80° C. or membranes were prepared immediately. […] Protein concentration of the membrane suspension was determined by the method of Lowry, O. et al., (1951) Journal of Biochemistry: 193, 265. […]
(§3) Radioligand binding assays were performed in 96-well microtiter plates in a total assay volume of 100 μL. […] Filter plates were rinsed three times with wash buffer (10 mM HEPES) to remove unbound radioactivity. […] The plates were then counted in a PerkinElmer Topcount liquid scintillation counter (PerkinElmer Inc., Wellesley, Mass.). Binding data were analyzed by nonlinear regression analysis with the GraphPad Prism Software package (GraphPad Software, Inc., San Diego, Calif.) using the one-site competition model. […]

[3] = target: T2, hM3 muscarinic receptor subtype (Homo sapiens, UniProt P20309); assay: Radioligand binding assay ([3H]NMS displacement), hM3; settings: ratio of Ki values
T2 construct: expressed in transfected cells; membrane preparation
T2 sequence (P20309 whole entry): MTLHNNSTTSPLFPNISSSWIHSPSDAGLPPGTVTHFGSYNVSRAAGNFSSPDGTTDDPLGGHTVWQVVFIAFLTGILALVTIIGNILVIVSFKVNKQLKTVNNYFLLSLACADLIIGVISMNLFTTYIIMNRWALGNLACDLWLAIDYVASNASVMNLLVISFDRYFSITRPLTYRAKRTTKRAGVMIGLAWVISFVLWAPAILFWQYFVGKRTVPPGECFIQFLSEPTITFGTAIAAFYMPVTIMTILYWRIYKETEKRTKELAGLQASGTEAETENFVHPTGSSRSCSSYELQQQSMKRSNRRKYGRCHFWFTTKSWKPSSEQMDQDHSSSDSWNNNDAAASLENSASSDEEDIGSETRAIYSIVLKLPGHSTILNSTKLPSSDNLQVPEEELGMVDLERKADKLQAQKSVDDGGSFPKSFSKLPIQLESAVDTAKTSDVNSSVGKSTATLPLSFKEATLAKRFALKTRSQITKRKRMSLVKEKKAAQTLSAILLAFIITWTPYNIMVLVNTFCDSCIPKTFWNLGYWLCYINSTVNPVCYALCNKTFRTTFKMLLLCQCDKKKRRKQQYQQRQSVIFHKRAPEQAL
Description: as §1, §2, §3

[4] = target: T3, hM2 receptor (Homo sapiens, UniProt P08172); assay: Blockade of agonist-mediated GTPγ[35S] binding; type: biochemical; settings: CHO-K1 cell membranes expressing hM2; carbachol at EC90
T3 construct: expressed in transfected cells; membrane preparation
T3 sequence (P08172 1-466): T1 sequence (P08172 1-466)
Description: A. Blockade of Agonist-Mediated GTPγ[^35S] Binding
In this assay, the functional potency of a test compound was determined by measuring the ability of the test compound to block carbachol-stimulated GTPγ[^35S] binding in CHO-K1 cells expressing the hM2 receptor.
CHO-K1 cells stably expressing the hM2 muscarinic receptor were grown in medium consisting of Hams F-12 media supplemented with 10% Fetal Bovine Serum and 500 μg/ml of Geneticin (G-418). Cells were incubated in a 5% CO2, humidified incubator at 37° C. Cells were grown to confluence and harvested with dPBS+2 mM EDTA and pelleted by centrifugation at 250×g for 10 minutes.
Cells from the centrifuged pellets were resuspended in homogenization buffer (10 mM HEPES, 10 mM EDTA, pH 7 at 4° C.). […]
To determine the ability of a test compound to inhibit carbachol-stimulated GTPγ[^35S] binding, the following was added to each well of 96 well plates: 25 μL of assay buffer with GTPγ[^35S] and GDP, 25 μL of diluted test compound (prepared as described above), and 25 μL CHO cell membranes expressing the hM2 receptor. […] After the pre-incubation period, 25 μL of carbachol at the final concentration of its EC90 value determined earlier in the day was added to each plate. […]
Test compound potency (IC50) was determined using iterative curve fitting (GraphPad Prism 3.0 software; single site competition curve). […]

[5] = tested on: volume-induced bladder contraction amplitude (VIBCAmp); assay: In vivo rat bladder assay; settings: anesthetized female Sprague-Dawley rats; intravenous; normalized to atropine response
Description: Female Sprague-Dawley rats (Harlan, Indianapolis, Ind.) weighing 200 to 300 g were anesthetized with urethane (1.5 g/kg, s.c., Sigma, St. Louis, Mo.), with a supplement of 0.25 g/kg, s.c. urethane as needed. Urethane was administered at a concentration of 0.25 g/mL.
Rats were prepared for surgery by shaving the neck and abdomen and cleansing with ethanol wipes. First, an incision was made on the ventral surface. An intravenous catheter was placed by isolating and ligating the femoral vein. […]
Thereafter, an intravenous dose of the test compound was administered and changes in VIBCAmp were recorded for 15 minutes. Atropine (0.1 mg/kg) was then administered intravenously (1 mL/kg) as a positive control and VIBCAmp and data was recorded for an additional 15 minutes. […]
Alternatively, after the vehicle, increasing cumulative intravenous doses of the test compound were administered at 15 minute intervals (1 mL/kg) and changes in VIBCAmp were recorded for 15 minutes. […]
The average VIBCAmp during the 5-15 minute period after test compound and atropine was determined and subtracted from the average VIBCAmp during the 5-15 minute post-vehicle period to obtain the test compound or atropine-induced change in VIBCAmp. […]

Row | pKi [2] | hM3/hM2 ratio [3] | pKi [4] | Structure (SMILES) | ID50 bladder/salivation selectivity ratio [1] | ID50 (rat bladder assay) [5] | ID50 (rat salivation assay) ([1]; anesthetized female Sprague-Dawley rats, intravenous, oxotremorine 1.0 mg/kg s.c.)
1 | – | – | – | CCN(CC)CC#CCOC(=O)C(O)(c1ccccc1)C1CCCCC1 (centres unmarked) [oxybutynin, reference compound] | about 1.4 | – | –
2 | > 7.70 | greater than or equal to 5 | > 8.00 | COc1cccc(OC)c1CN1CCC(N(C)CCCCOCCCCN2CC[C@@H](C(C(N)=O)(c3ccccc3)c3ccccc3)C2)CC1 [Example 4] | greater than 10 | less than or equal to 0.1 mg/kg | greater than or equal to 1 mg/kg
3 | – | – | – | Cc1ccc(O)c([C@H](CCN(C(C)C)C(C)C)c2ccccc2)c1 [tolterodine, reference compound] | ~4.8 | – | –
